From PMC3135787 (Antiviral research, 2011) come the findings set out here.

Where two headings read alike, the source gives them in different places. A value given as a limit tells only on which side of the number the result lay.

The subject of data set [1] is ET replicon with NS5B M414T. In words: microbe, parasite or virus in culture. In kind it is cell-based, HCV.
Data set [2] concerns ET replicon with NS5B S96T/N142T. The data set is described as follows: microbe, parasite or virus in culture. In kind it is cell-based, HCV. Particulars: for EC90: read-out: EC90 Mutant replicon; for EC90 fold change: S96T/N142T mutant EC90 normalised to wild-type.
Data set [3] deals with Clone A wild type replicon. In words: Cross resistance: Clone A wild type replicon, RT-PCR. In kind it is cell-based, HCV. The following applies: read-out: EC90 WT replicon.
In data set [4] the test system is Clone A replicon with NS5B S282T. The data set is described as follows: microbe, parasite or virus in culture. The format is cell-based, HCV. The following applies: for EC90: read-out: EC90 Mutant replicon; for EC90 fold change: S282T mutant EC90 normalised to wild-type. A general note: Replicon systems follow genome replication, usually without infectious particles.

Data set [5] deals with T1, Human guanylate kinase (hGUK1) (Homo sapiens, UniProt Q16774).
T1 sequence (Q16774 1-197): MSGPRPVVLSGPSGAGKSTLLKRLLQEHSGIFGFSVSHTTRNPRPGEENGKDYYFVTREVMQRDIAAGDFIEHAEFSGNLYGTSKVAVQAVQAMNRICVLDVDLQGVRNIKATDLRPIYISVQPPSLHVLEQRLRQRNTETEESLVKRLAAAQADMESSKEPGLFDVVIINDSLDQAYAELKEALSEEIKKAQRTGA
The data set is described as follows: hGUK1-mediated phosphorylation, coupled spectrophotometric assay. The format is biochemical.

The target of a further data set is T2, recombinant human ADAL1 (Homo sapiens, UniProt Q6DHV7).
T2 sequence (Q6DHV7 1-355): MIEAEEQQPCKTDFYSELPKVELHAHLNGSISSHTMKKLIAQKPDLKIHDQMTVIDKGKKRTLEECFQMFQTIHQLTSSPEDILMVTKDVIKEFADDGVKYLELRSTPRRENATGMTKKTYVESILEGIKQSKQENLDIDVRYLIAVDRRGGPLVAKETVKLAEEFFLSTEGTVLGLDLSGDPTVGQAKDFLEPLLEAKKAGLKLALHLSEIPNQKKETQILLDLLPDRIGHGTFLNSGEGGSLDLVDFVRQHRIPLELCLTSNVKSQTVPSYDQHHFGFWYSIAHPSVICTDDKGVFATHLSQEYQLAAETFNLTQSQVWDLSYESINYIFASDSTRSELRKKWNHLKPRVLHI
The data set is described as follows: ADAL1-mediated demethylation assay. In kind it is biochemical. Particulars: ADAL1, pH 6.7, 37°C.

For data set [6], the system named is primary human hepatocytes. The data set is described as follows: Metabolism of [3H]-PSI-353661 in primary human hepatocytes. In kind it is in vitro ADME. Particulars: continuous exposure to 5 μM [3H]-PSI-353661.
In data set [7] the test system is Human nucleoside diphosphate kinase (NDPK). In words: NDPK-mediated phosphorylation, coupled assay. The format is biochemical.
The subject of data set [8] is ET replicon with NS5B M423T. The format is cell-based, HCV.
Data set [9] has as its system genotype 1b ET replicon, wild type. In kind it is cell-based, HCV. Particulars: read-out: EC90 WT replicon; wild-type ET replicon, luciferase-based assay.
Data set [10] deals with genotype 1a H77 subgenomic replicon. In words: HCV replicon assay, genotype 1a H77. Particulars: GT1a_H77 replicon, four days. The format is cell-based.
The test system of data set [11] is genotype 1b replicon (Con1 strain). In words: HCV replicon assay, genotype 1b Con1. Particulars: GT1b_Con1 replicon, four days (96 h). In kind it is cell-based.
The test system of data set [12] is genotype 2a J6/JFH-1 subgenomic replicon. The data set is described as follows: HCV replicon assay, genotype 2a J6/JFH-1. The format is cell-based. The following applies: GT2a_JFH-1 replicon, four days.
Data set [13] can be described thus: 8-day MTS cytotoxicity assay, CEM. In kind it is cell-based, human. Particulars: human, CEM cells.
Data set [14] can be described thus: 8-day MTS cytotoxicity assay, Huh7. In kind it is cell-based, human. Particulars: human, Huh7 cells. In general terms: Formazan colour is commonly taken as a measure of viable cells.
Data set [15] can be described thus: 8-day MTS cytotoxicity assay, BxPC3. In kind it is cell-based, human. The following applies: human, BxPC3 cells.
Data set [16] is described as follows: 8-day MTS cytotoxicity assay, HepG2. The format is cell-based, human. The following applies: human, HepG2 cells.
In data set [17] the test system is erythroid progenitor cells (CFU-E and BFU-E). In words: Human bone marrow stem cell toxicity, 14-day colony formation, erythroid. The format is cell-based. The following applies: 1 μg/mL (4 μM), 14 days.
For data set [18], the system named is myeloid progenitor cells (CFU-GM). The data set is described as follows: Human bone marrow stem cell toxicity, 14-day colony formation, myeloid. Particulars: 1 μg/mL (4 μM), 14 days. The format is cell-based.
Data set [19] concerns ET replicon with NS5B P495L. In words: microbe, parasite or virus in culture. The format is cell-based, HCV.
Data set [20] concerns ET replicon with NS5B C316Y. The data set is described as follows: microbe, parasite or virus in culture. The format is cell-based, HCV.
Where [21] appears, read: Hepatitis C virus, read-out: EC90 Mutant replicon.

In the case of `CC(C)CCn1c(=O)c(C2=NS(=O)(=O)c3cc(N(C)S(C)(=O)=O)ccc3N2)c(O)c2cccn21` [Benzothiadiazine, N-{3-[4-Hydroxy-1-(3-methyl-butyl)-2-oxo-1,2-dihydro-pyrrolo[1,2-b]pyridazin-3-yl]-1,1-dioxo-1,4-dihydro-1λ^6-benzo[1,2,4]thiadiazin-7-yl}-N-methyl-methanesulfonamide, reference compound], the EC90 in data set [1] (setting [21]) came to 28.4 ± 13.7 µM. The EC90 fold change in data set [1] (M414T mutant EC90 normalised to wild-type) was determined as 23.1.

For `[N-]=[N+]=N[C@]1(CO)O[C@@H](n2ccc(N)nc2=O)[C@H](O)[C@@H]1O` [R1479, 4′-azidocytidine], the EC90 came out at 74.1 ± 12.1 µM in [2] (Hepatitis C virus), 22.4 ± 4.58 µM in data set [3] (Hepatitis C virus) and 12.5 ± 3.78 µM in data set [4] (Hepatitis C virus). Further, the EC90 fold change in data set [2] was 4.7; in data set [4], 0.6.

As for `COc1nc(N)nc2c1ncn2[C@@H]1O[C@H](COP(=O)(O)O)[C@@H](O)[C@@]1(C)F` [PSI-353224, 2-amino-6-methoxypurine 2′-deoxy-2′-α-fluoro-2-β-C-methylribose-5′-monophosphate], in data set [5] (hGUK1, 500 μM, the highest concentration tested), the activity as substrate entry is on record as “No activity”. Further, in [5] (hGUK1, 37°C), the Km entry is “No activity”, the kcat result is “No activity” and the “kcat / Km” value was “No activity”. Moreover, on recombinant human ADAL1, the Km amounted to 9 ± 2.1 µM and the kcat came to 5.84 ± 0.40 s⁻¹. Further, in data set [6], the “time to maximum intracellular concentration” value (from here on “time”) is 0.5 to 1 h.

As to `Nc1nc2c(ncn2[C@@H]2O[C@H](COP(=O)(O)OP(=O)(O)O)[C@@H](O)[C@H]2O)c(=O)[nH]1` [GDP, guanosine-5′-diphosphate, reference compound], the “kcat (apparent)” value in [7] (25 °C, PK contributed in the phosphorylation) was determined as 38.8 ± 5.0 s⁻¹. Moreover, the Km in data set [7] (read-out: Km (apparent), 25 °C, PK contributed in the phosphorylation) was found to be 56.2 ± 4.9 µM.

With `CC(C)N(c1cc(-c2ccccc2)sc1C(=O)O)C(=O)[C@H]1CC[C@H](C)CC1` [Thiophene, 3-((1r,4r)-N-isopropyl-4-methylcyclohexanecarboxamido)-5-phenylthiophene-2-carboxylic acid, reference compound], in data set [8] (M423T mutant EC90 normalised to wild-type), the EC90 fold change turned out to be 19.1. In addition, the EC90 worked out at 69.5 ± 9.24 µM in data set [8] (read-out: EC90 Mutant replicon, M423T, luciferase-based assay) and 3.65 ± 0.21 µM in [9].

Consider `CNc1ncnc2c1ncn2[C@@H]1O[C@H](COP(=O)(O)O)[C@@H](O)[C@H]1O` [N^6-meAMP, N^6-methyl AMP, reference compound], for which, at recombinant human ADAL1, the Km stood at 12.5 ± 1.6 µM and the kcat stood at 1.58 ± 0.12 s⁻¹.

Turning to `C[C@@]1(F)[C@H](O)[C@@H](CO)O[C@H]1n1cnc2c(=O)[nH]c(N)nc21` [PSI-6567, 2′-F-2′-C-methylguanosine], the EC50 is 19 ± 8.6 µM in data set [10], 22 ± 7.7 µM in data set [11] and 38.3 ± 18.6 µM in data set [12]. For the same compound, the EC90 came out at 53.4 ± 12.8 µM in [10], 69.2 ± 19.3 µM in data set [11] and 60 ± 14.8 µM in data set [12]. The “time” value in data set [6] lay in the range of 0.5 to 1 h.

Take `C[C@@]1(F)[C@H](O)[C@@H](COP(=O)(O)O)O[C@H]1n1cnc2c(=O)[nH]c(N)nc21` [PSI-353222, 2′-deoxy-2-α-fluoro-2-β-C-methylguanosine-5′-monophosphate]: in data set [5] (hGUK1), the “Km compared to GMP (fold weaker)” value was 3.4 fold and the “kcat compared to GMP (fold lower)” value is recorded as “approximately 240 fold”. For the same compound, in data set [5] (hGUK1, 37°C), the Km came to 64.9 ± 1.6 µM and the kcat was 0.31 ± 0.03 s⁻¹. Besides, in [6], the “time” value was in the range of 1 to 2 h.

For `Nc1ccn([C@@H]2O[C@H](CO)[C@@H](O)C2(F)F)c(=O)n1` [Gemcitabine, 2′-deoxy-2′-difluorocytidine], the CC50 at 8 days in data set [13], in [14], in data set [15] and in [16] was below 1 µM in each case.

Consider `COc1nc(N)nc2c1ncn2[C@@H]1O[C@H](CO)[C@@H](O)[C@@]1(C)F` [PSI-352878, (2R,3R,4R,5R)-5-(2-amino-6-methoxy-purin-9-yl)-4-fluoro-2-hydroxymethyl-4-methyl-tetrahydro-furan-3-ol], for which the “time” value in data set [6] lay within 0.5 to 1 h.

For `COc1nc(N)nc2c1ncn2[C@@H]1O[C@H](COP(=O)(O)N[C@@H](C)C(=O)O)[C@@H](O)[C@@]1(C)F` [PSI-353131, (S)-2-{[(2R,3R,4R,5R)-5-(2-amino-6-methoxy-purin-9-yl)-4-fluoro-3-hydroxy-4-methyl-tetrahydro-furan-2-ylmethoxy]-hydroxy-phosphorylamino}-propionic acid], at recombinant human ADAL1, the Michaelis-Menten constant (Km) entry is recorded as “No activity”, the kcat entry is reported as “No activity” and the “kcat / Km” value was “No activity”. The “time” value in data set [6] amounted to 0.25 h.

Consider `COc1nc(N)nc2c1ncn2[C@@H]1O[C@H](COP(=O)(O)O)[C@@H](O)[C@H]1O` [O^6-meGMP, O^6-methyl GMP, reference compound], for which, at recombinant human ADAL1, the Km was 5.2 ± 0.9 µM and the kcat is 2.33 ± 0.07 s⁻¹.

Turning to `CC(C)OC(=O)[C@H](C)NP(=O)(OC[C@H]1O[C@@H](n2ccc(=O)[nH]c2=O)[C@](C)(F)[C@@H]1O)Oc1ccccc1` (some centres unmarked) [PSI-7851], the EC90 in [9] was determined as 0.43 ± 0.23 µM; in data set [2] (S96T/N142T, luciferase-based assay) it was 0.39 ± 0.19 µM; in data set [3] (Clone A wild type replicon, RT-PCR assay), 0.44 ± 0.21 µM; in [4] (S282T, RT-PCR assay), 7.36 ± 1.02 µM. Also, the EC90 fold change in data set [2] was 0.9; in data set [4], 16.7.

Take `O=c1[nH]cc(F)c(=O)[nH]1` [5-fluorouracil, 5-Fluorouracil, reference compound]: the “inhibition of BFU-E colony formation” value in data set [17] is recorded as “completely inhibited”. Also, in data set [18], the “inhibition of CFU-GM colony formation” value is on record as “completely inhibited”.

As for `COc1ccc2c(c1)C1CC1(N)Cn1c-2c(C2CCCCC2)c2ccc(C(=O)NS(=O)(=O)N(C)C)cc21` (centres unmarked) [2-phenol indole, 5a-amino-12-cyclohexyl-N-(N,N-dimethylsulfamoyl)-3-methoxy-4b,5,5a,6-tetrahydrobenzo [3,4] cyclopropa [5,6] azepino [1,2-a] indole-9-carboxamide, reference compound], the concentration for an effect of 90% (EC90) in data set [19] (setting [21]) was found to be 60.8 ± 19.9 µM. Besides, the EC90 fold change in data set [19] (P495L mutant EC90 normalised to wild-type) is recorded as 51.9.

Take `CNC(=O)c1c(-c2ccc(F)cc2)oc2cc(N(CCO)S(C)(=O)=O)c(C3CC3)cc12` [HCV-796, 5-cyclopropyl-2-(4-fluoro-phenyl)-6-[(2-hydroxy-ethyl)-methanesulfonyl-amino]-benzofuran-3-carboxylic acid methylamide, reference compound]: the EC90 fold change in data set [20] (C316Y mutant EC90 normalised to wild-type) came out at 73.9. In addition, in data set [20] (setting [21]), the EC90 stood at 1.92 ± 0.77 µM.

One may read the EC90 as the point of the concentration-response curve where the effect stands at 90%. Broadly, the Km is the substrate concentration at which the rate is half of its maximum. As a reminder, the kcat is the maximal rate divided by the concentration of active sites. In general, EC50 refers to the concentration that produces a half-maximal response. Low readings indicate higher potency in that assay, high ones lower potency in that assay. As usually defined, the CC50 is the concentration at which the toxic effect on the cells reaches its halfway point. High values mean lower toxicity to the cells, low ones greater toxicity to the cells.
